Assays:
Assay type in all cases: biochemical
human CIT = biological target: T1, human CIT (Homo sapiens, UniProt O14578); assay: CIT enzyme assay (ADP-Glo); details: ADP-Glo, ATP 5 μM; read-out: CIT IC50
T1 construct: Recombinant human CIT (1-499); GST (N); purchased SignalChem C52-11G; host or cells: Sf9 insect cells
Method: The ability of compounds to inhibit human CIT kinase activities was determined using a commercially available ADP-Glo™ Kinase Assay kit (Promega, Cat #V9102) according to the manufacturer's protocol.
(§1) Recombinant human CIT (1-499) (expressed in Sf9 insect cells with an N-terminal GST tag) was purchased from SignalChem (Cat #C52-11G). Recombinant full length human MBP (expressed in E. Coli cells with an N-terminal GST tag) was purchased from SignalChem (Cat #M42-54G). This assay, run in a 384-well plate format, is a generic method for measuring kinase activities using an ADP-Glo Kinase Assay Kit. The basic assay procedure involves two steps: (1) Enzymatic step: inhibitors are incubated with the kinase and then ATP (included in the ADP-Glo Kinase Assay Kit) and the MBP protein are added to start the enzymatic reaction; (2) Detection step: after the kinase reaction, first ADP-Glo™ Reagent is added to terminate the kinase reaction and deplete the remaining ATP. Second, the Kinase Detection Reagent is added to simultaneously convert ADP to ATP and allow the newly synthesized ATP to be measured using a luciferase/luciferin reaction. The light generated is measured using a luminometer.
(§2) Briefly, CIT (20 nM) in the enzymatic buffer solutions (40 mM Tris, pH 7.5, 20 mM MgCl2, 0.1 mg/ml BSA, 50 μM DTT) were mixed with various concentrations of inhibitors (dissolved in 100% DMSO). These solutions were incubated for 30 minutes at 25° C., and subsequently a mixture of substrate peptide and ATP was added with the final peptide and ATP concentrations at 0.05 mg/ml and 5 μM, respectively. The final reaction mixture of enzyme-substrate-ATP-compound was incubated for 90 minutes at 25° C.
(§3) Afterwards ADP-Glo™ Reagent was added and the mixture was incubated at 25° C. for 60 minutes. Then Kinase Detection Reagent was added, and the final mixture was incubated at 25° C. for 60 minutes. The luminescence signal of the final solution was measured on an Envision instrument (PerkinElmer). The percent (%) inhibition at each concentration of a compound is calculated relative to the luminescence signal in the Max and Min control wells contained within each assay plate. […] The concentrations and percent inhibition values for a test compound are plotted and the concentration of the compound required to achieve 50% inhibition (IC50) is determined with a four-parameter logistic dose response equation.

human HIPK2 = biological target: T2, human HIPK2 (Homo sapiens, UniProt Q9H2X6); assay: HIPK2 enzyme assay (ADP-Glo); details: ADP-Glo, ATP 5 μM; read-out: HIPK2 IC50
T2 construct: Recombinant human HIPK2 (1-640); GST (N); purchased SignalChem H04-11BG; host or cells: Sf9 insect cells
T2 sequence (Q9H2X6 1-640): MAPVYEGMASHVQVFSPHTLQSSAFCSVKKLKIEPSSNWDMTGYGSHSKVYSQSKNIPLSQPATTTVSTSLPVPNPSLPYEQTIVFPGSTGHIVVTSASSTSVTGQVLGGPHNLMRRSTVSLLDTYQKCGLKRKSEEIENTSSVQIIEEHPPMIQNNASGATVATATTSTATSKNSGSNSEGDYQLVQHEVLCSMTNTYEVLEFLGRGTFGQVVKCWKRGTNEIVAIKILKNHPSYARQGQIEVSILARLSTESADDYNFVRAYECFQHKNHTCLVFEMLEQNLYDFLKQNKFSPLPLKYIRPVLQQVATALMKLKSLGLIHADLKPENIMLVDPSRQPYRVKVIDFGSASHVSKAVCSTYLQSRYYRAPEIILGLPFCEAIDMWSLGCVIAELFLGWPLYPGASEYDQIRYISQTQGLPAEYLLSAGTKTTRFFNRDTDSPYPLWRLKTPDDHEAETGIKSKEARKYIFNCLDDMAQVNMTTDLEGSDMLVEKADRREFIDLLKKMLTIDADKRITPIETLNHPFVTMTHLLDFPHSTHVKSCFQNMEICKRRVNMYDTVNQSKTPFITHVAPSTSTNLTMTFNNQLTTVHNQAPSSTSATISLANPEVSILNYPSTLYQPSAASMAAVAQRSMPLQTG
Method: The ability of compounds to inhibit human HIPK2 kinase activities was determined using a commercially available ADP-Glo™ Kinase Assay kit (Promega, Cat #V9102) according to the manufacturer's protocol.
as §1, with “HIPK2 (1-640)” for “CIT (1-499)”, “#H04-11BG).” for “#C52-11G).”
as §2, with “HIPK2 (1” for “CIT (20”
as §3

human CK2a2 (CSNK2a2) = biological target: T3, human CK2a2 (CSNK2a2) (Homo sapiens, UniProt P19784); assay: CK2a2 (CSNK2a2) enzyme assay (ADP-Glo); details: ADP-Glo, ATP 15 μM; read-out: CK2 alpha 2 IC50
T3 construct: Recombinant human CK2a2 (CSNK2a2) (full length); GST (N); purchased SignalChem C71-10G; host or cells: Sf9 insect cells
T3 sequence (P19784 whole entry): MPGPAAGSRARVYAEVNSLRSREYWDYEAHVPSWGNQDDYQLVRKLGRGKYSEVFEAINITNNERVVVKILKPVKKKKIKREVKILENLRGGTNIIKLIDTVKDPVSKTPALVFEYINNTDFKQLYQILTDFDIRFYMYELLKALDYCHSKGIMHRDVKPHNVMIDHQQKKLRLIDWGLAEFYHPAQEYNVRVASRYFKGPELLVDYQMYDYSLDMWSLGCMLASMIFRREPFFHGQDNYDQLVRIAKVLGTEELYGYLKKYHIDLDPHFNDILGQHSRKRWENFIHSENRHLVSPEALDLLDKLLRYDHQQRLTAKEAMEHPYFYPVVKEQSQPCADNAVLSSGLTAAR
Method: 8. CK2a2 (CSNK2a2) Enzyme Assay
The ability of compounds to inhibit human CK2a2 (CSNK2a2) kinase activities was determined using a commercially available ADP-Glo™ Kinase Assay kit (Promega, Cat #V9102) according to the manufacturer's protocol.
as §1, with “CK2a2 (CSNK2a2) (full length)” for “CIT (1-499)”, “#C71-10G). CK2 substrate (sequence: […])” for “#C52-11G). Recombinant full length human MBP (expressed in E. Coli cells with an N-terminal GST tag)”, “#C08-58).” for “#M42-54G).”
as §2, with “Briefly, CK2a2 (CSNK2a2) (7” for “Briefly, CIT (20”, “at 0.04” for “at 0.05”, “and 15” for “and 5”
as §3

T1 sequence (O14578 1-499): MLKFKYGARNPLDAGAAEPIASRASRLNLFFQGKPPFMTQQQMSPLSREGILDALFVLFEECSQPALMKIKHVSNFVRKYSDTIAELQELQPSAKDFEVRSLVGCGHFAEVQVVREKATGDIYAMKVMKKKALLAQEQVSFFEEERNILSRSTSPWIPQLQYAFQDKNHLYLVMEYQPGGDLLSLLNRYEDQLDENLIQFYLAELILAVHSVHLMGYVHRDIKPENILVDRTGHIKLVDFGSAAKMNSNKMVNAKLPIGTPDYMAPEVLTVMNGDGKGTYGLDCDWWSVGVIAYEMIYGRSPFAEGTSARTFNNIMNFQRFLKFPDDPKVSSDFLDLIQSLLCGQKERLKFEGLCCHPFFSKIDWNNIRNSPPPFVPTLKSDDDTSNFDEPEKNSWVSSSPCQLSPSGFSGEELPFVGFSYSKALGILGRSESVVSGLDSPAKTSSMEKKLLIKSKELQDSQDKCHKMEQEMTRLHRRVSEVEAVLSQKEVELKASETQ

Row | IC50 (human HIPK2) [µM] | Compound | IC50 (human CIT) [µM] | IC50 (human CK2a2 (CSNK2a2)) [µM]
1 | > 10 | O=C1NC(Nc2ccc3ncsc3c2)=N/C1=C\c1ccc2c(c1)OCO2 [Example 47, (Z)-5-(benzo[d][1,3]dioxol-5-ylmethylene)-2-(benzo[d]thiazol-6-ylamino)-3,5-dihydro-4H-imidazol-4-one] | > 10 | > 10
2 | 1 to 10 | CN(C1=N/C(=C\c2ccc3ncsc3c2)C(=O)N1)c1ccc(N)cc1 [Example 44, (Z)-2-((4-aminophenyl)(methyl)amino)-5-(benzo[d]thiazol-6-ylmethylene)-3,5-dihydro-4H-imidazol-4-one] | 0.1 to 1 | 0.1 to 1
3 | 0.1 to 1 | NC1=N/C(=C\c2ccc3ncsc3c2)C(=O)N1 [Example 103, (Z)-2-amino-5-(benzo[d]thiazol-6-ylmethylene)-3,5-dihydro-4H-imidazol-4-one] | 0.1 to 1 | 0.1 to 1
4 | > 10 | Cn1ncc2cc(/C=C3\N=C(Nc4ccc5ncsc5c4)NC3=O)ccc21 [Example 78, (Z)-2-(benzo[d]thiazol-6-ylamino)-5-((1-methyl-1H-indazol-5-yl)methylene)-3,5-dihydro-4H-imidazol-4-one] |  | 
5 | > 10 | O=C1NC(Nc2ccc3ncsc3c2)=N/C1=C\c1ccc2[nH]ccc2c1 [Example 58, (Z)-5-((1H-indol-5-yl)methylene)-2-(benzo[d]thiazol-6-ylamino)-3,5-dihydro-4H-imidazol-4-one] |  | 
6 | 0.1 to 1 | O=C1NC(Nc2ccc3ncsc3c2)=N/C1=C\c1ccc2scnc2c1 [Example 57, (Z)-5-(benzo[d]thiazol-5-ylmethylene)-2-(benzo[d]thiazol-6-ylamino)-3,5-dihydro-4H-imidazol-4-one] |  | 
7 | > 10 | O=C1NC(Nc2ccc3ncsc3c2)=N/C1=C\c1ccc2cc[nH]c2c1 [Example 63, (Z)-5-((1H-indol-6-yl)methylene)-2-(benzo[d]thiazol-6-ylamino)-3,5-dihydro-4H-imidazol-4-one] |  | 
8 | > 10 | O=C1NC(Nc2ccc3ncsc3c2)=N/C1=C\c1ccc2c(c1)OCCO2 [Example 74, (Z)-2-(benzo[d]thiazol-6-ylamino)-5-((2,3-dihydrobenzo[b][1,4]dioxin-6-yl)methylene)-3,5-dihydro-4H-imidazol-4-one] |  | 
9 | > 10 | Cn1cnc2cc(/C=C3\N=C(Nc4ccccc4)NC3=O)ccc21 [Example 71, (Z)-5-((1-methyl-1H-benzo[d]imidazol-5-yl)methylene)-2-(phenylamino)-3,5-dihydro-4H-imidazol-4-one] |  | 
10 | > 10 | O=C1NC(Nc2ccccc2)=N/C1=C\c1ccc2cc[nH]c2c1 [Example 73, (Z)-5-((1H-indol-6-yl)methylene)-2-(phenylamino)-3,5-dihydro-4H-imidazol-4-one] |  | 

More lines, now with the values behind:

Row | Compound | IC50 (human HIPK2) [µM] | IC50 (human CIT) [µM] | IC50 (human CK2a2 (CSNK2a2)) [µM]
11 | CN(C1=N/C(=C\c2ccc3c(c2)OCO3)C(=O)N1)c1ccc(N)cc1 [Example 37, (Z)-2-((4-aminophenyl)(methyl)amino)-5-(benzo[d][1,3]dioxol-5-ylmethylene)-3,5-dihydro-4H-imidazol-4-one] | > 10 | > 10 | 0.1 to 1
12 | O=C1NC(Nc2ccccc2)=N/C1=C\c1ccc2ncccc2c1 [Example 53, (Z)-2-(phenylamino)-5-(quinolin-6-ylmethylene)-3,5-dihydro-4H-imidazol-4-one] | 0.1 to 1 | > 10 | > 10
13 | O=C1/C(=C/c2ccc3ncsc3c2)N=C(N(Cc2ccccc2)c2ccccc2)N1Cc1ccccc1 [Example 42, (Z)-5-(benzo[d]thiazol-6-ylmethylene)-3-benzyl-2-(benzyl(phenyl)amino)-3,5-dihydro-4H-imidazol-4-one] | > 10 | > 10 | > 10
14 | CN(Cc1ccccc1)C1=N/C(=C\c2ccc3c(c2)OCO3)C(=O)N1 [Example 23, (Z)-5-(benzo[d][1,3]dioxol-5-ylmethylene)-2-(benzyl(methyl)amino)-3,5-dihydro-4H-imidazol-4-one] | > 10 | > 10 | > 10
15 | O=C1/C(=C/c2ccc3c(c2)OCO3)N=C(N(Cc2ccccc2)c2ccccc2)N1Cc1ccccc1 [Example 2, (Z)-5-(benzo[d][1,3]dioxol-5-ylmethylene)-3-benzyl-2-(benzyl(phenyl)amino)-3,5-dihydro-4H-imidazol-4-one] | > 10 | > 10 | 
16 | O=C1NC(Nc2ccccc2)=N/C1=C\c1ccc2[nH]ncc2c1 [Example 55, (Z)-5-((1H-indazol-5-yl)methylene)-2-(phenylamino)-3,5-dihydro-4H-imidazol-4-one] | 0.1 to 1 |  | 
17 | COc1ccc(NC2=N/C(=C\c3ccc4ncsc4c3)C(=O)N2)cc1 [Example 25, (Z)-5-(benzo[d]thiazol-6-ylmethylene)-2-((4-methoxyphenyl)amino)-3,5-dihydro-4H-imidazol-4-one] | 0.1 to 1 |  | 
18 | CC(C)NC1=N/C(=C\c2ccc3scnc3c2)C(=O)N1 [Example 49, (Z)-5-(benzo[d]thiazol-5-ylmethylene)-2-(isopropylamino)-3,5-dihydro-4H-imidazol-4-one] | > 10 |  | 
19 | CN(C1=N/C(=C\c2ccc3ncsc3c2)C(=O)N1)c1ccc([N+](=O)[O-])cc1 [Example 43, (Z)-5-(benzo[d]thiazol-6-ylmethylene)-2-(methyl(4-nitrophenyl)amino)-3,5-dihydro-4H-imidazol-4-one] | > 10 |  | 
20 | O=C1NC(N(Cc2ccccc2)c2ccccc2)=N/C1=C\c1ccc2[nH]cnc2c1 [Example 35, (Z)-5-((1H-benzo[d]imidazol-5-yl)methylene)-2-(benzyl(phenyl)amino)-3,5-dihydro-4H-imidazol-4-one] | > 10 |  | 

Reference: patent publication US12643887B2, “Heterocyclic derivatives with cardiomyocyte proliferation activity for treatment of heart diseases” (Tongji University, priority 2019, dated 2026)
